According to the NIST ThermoML archive (doi:10.1016/j.jct.2018.12.018):
± gives the expanded uncertainty stated by the source.

Conditions: Liquid, Vibrating tube method

CC(C)O [propan-2-ol]
mass density [kg/m3]
Conditions	333.15 K	353.15 K	373.15 K	393.15 K
1000 kPa	–	729.8 ± 0.7	706.6 ± 0.7	680.4 ± 0.7
5000 kPa	–	735 ± 0.7	712.8 ± 0.7	688.2 ± 0.7
10000 kPa	–	741 ± 0.7	719.9 ± 0.7	696.7 ± 0.7
15000 kPa	–	746.5 ± 0.7	726.3 ± 0.8	704.4 ± 0.8
20000 kPa	–	751.7 ± 0.8	732 ± 0.8	711.4 ± 0.8
25000 kPa	773.6 ± 0.8	756.5 ± 0.8	737.7 ± 0.8	717.6 ± 0.8
30000 kPa	777.7 ± 0.8	761 ± 0.8	742.9 ± 0.8	723.5 ± 0.8
35000 kPa	781.5 ± 0.8	765.4 ± 0.8	747.8 ± 0.8	729 ± 0.8
40000 kPa	785.3 ± 0.8	769.3 ± 0.8	752.2 ± 0.8	734.2 ± 0.9
45000 kPa	788.9 ± 0.8	773.3 ± 0.8	756.6 ± 0.9	739 ± 0.9
50000 kPa	792.3 ± 0.8	777 ± 0.9	760.7 ± 0.9	743.5 ± 0.9
55000 kPa	795.6 ± 0.9	780.6 ± 0.9	764.7 ± 0.9	747.9 ± 0.9
60000 kPa	798.7 ± 0.9	784 ± 0.9	768.6 ± 0.9	752.1 ± 1
65000 kPa	801.8 ± 0.9	787.4 ± 0.9	772.1 ± 0.9	756.1 ± 1
70000 kPa	804.8 ± 0.9	790.6 ± 0.9	775.6 ± 1	760 ± 1
80000 kPa	810.5 ± 0.9	796.7 ± 1	782.3 ± 1	767.2 ± 1
90000 kPa	815.9 ± 1	802.6 ± 1	788.5 ± 1.1	773.9 ± 1.1
100000 kPa	820.9 ± 1	808 ± 1	794.4 ± 1.1	780.2 ± 1.1
110000 kPa	825.8 ± 1	813.2 ± 1.1	799.9 ± 1.1	786.2 ± 1.2
120000 kPa	830.4 ± 1.1	818.1 ± 1.1	805.3 ± 1.2	791.8 ± 1.2
130000 kPa	834.8 ± 1.1	822.8 ± 1.1	810.2 ± 1.2	797.2 ± 1.3
140000 kPa	839.2 ± 1.1	827.3 ± 1.2	815.1 ± 1.2	802.3 ± 1.3
